# Experimental data taken from PubChem BioAssay AID330 (DTP/NCI, 2004).
# “And” between values parts separate entries of the source, which are not always exact repeats. Identical values can stand only once. Toxic doses and inconclusive results are not listed.
# System: P388 leukemia ip, CD2F1 mice, survival T/C
# Experiment: NCI In Vivo Anticancer Drug Screen. Data for tumor model P388 Leukemia (intraperitoneal) in CD2F1 (CDF1) mice
# Conditions: endpoint: median survival time, higher = longer survival
# In short: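 Mice carrying the transplanted tumor received test compound or vehicle. Survival was recorded in each group, and the value is the treated-group measurement divided by that of the vehicle-treated control group.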
# [1] = dose: 25.0 mg/kg/injection, schedule: Q01DX009 (ip), vehicle: other
# [2] = dose: 50.0 mg/kg/injection, schedule: Q01DX009 (ip), vehicle: saline with Tween-80
# [3] = dose: 100.0 mg/kg/injection, schedule: Q01DX009 (ip), vehicle: saline with Tween-80
# [4] = dose: 200.0 mg/kg/injection, schedule: Q01DX009 (ip), vehicle: saline with Tween-80
# [5] = dose: 50.0 mg/kg/injection, schedule: Q01DX005 (ip), vehicle: saline with Tween-80
# [6] = dose: 100.0 mg/kg/injection, schedule: Q01DX005 (ip), vehicle: saline with Tween-80
structure (smiles),measurement,setting,value
C[C@]12CC[C@H]3[C@@H](CC=C4C[C@@H](O)CC[C@@]43C)[C@@H]1CC[C@@H]2N(CCO)CCO,T/C,"dose: 50.0 mg/kg/injection, schedule: Q01DX005 (ip), vehicle: Klucel (hydroxypropylcellulose) (HPC)",96 % of control
same,T/C,"dose: 100.0 mg/kg/injection, schedule: Q01DX005 (ip), vehicle: Klucel (hydroxypropylcellulose) (HPC)",100 % of control
same,T/C,"dose: 200.0 mg/kg/injection, schedule: Q01DX005 (ip), vehicle: Klucel (hydroxypropylcellulose) (HPC)",97 % of control
CC(=O)N1C=[N+](C)C(C)(C)C1,T/C,"dose: 100.0 mg/kg/injection, schedule: Q04DX003 (ip), vehicle: saline",103 % of control
same,T/C,"dose: 200.0 mg/kg/injection, schedule: Q04DX003 (ip), vehicle: saline",90 % of control
COC(=O)/C=N/Nc1ccc(C)cc1,T/C,[1],89 % of control
same,T/C,"dose: 50.0 mg/kg/injection, schedule: Q01DX009 (ip), vehicle: other",86 % of control
same,T/C,"dose: 100.0 mg/kg/injection, schedule: Q01DX009 (ip), vehicle: other",96 % of control
same,T/C,"dose: 200.0 mg/kg/injection, schedule: Q01DX009 (ip), vehicle: other",103 % of control
same,T/C,"dose: 400.0 mg/kg/injection, schedule: Q01DX009 (ip), vehicle: other",108 % of control
CC1CN(C(C)(C)C)CO1 (stereo not given),T/C,"dose: 12.5 mg/kg/injection, schedule: Q01DX005 (ip), vehicle: saline",112 % of control and 88 % of control
same,T/C,"dose: 25.0 mg/kg/injection, schedule: Q01DX005 (ip), vehicle: saline",107 % of control
same,T/C,"dose: 50.0 mg/kg/injection, schedule: Q01DX005 (ip), vehicle: saline",114 % of control and 117 % of control and 119 % of control
same,T/C,"dose: 100.0 mg/kg/injection, schedule: Q01DX005 (ip), vehicle: saline",119 % of control and 120 % of control
same,T/C,"dose: 200.0 mg/kg/injection, schedule: Q01DX005 (ip), vehicle: saline",107 % of control
S=C(N/N=C(\c1ccccc1)c1ccccn1)SCc1ccccc1,T/C,[2],99 % of control
same,T/C,[3],90 % of control
same,T/C,[4],97 % of control
CCCCOP(=O)(NNP(=O)(OCCCC)OCCCC)OCCCC,T/C,"dose: 25.0 mg/kg/injection, schedule: Q01DX009 (ip), vehicle: saline with Tween-80",102 % of control
same,T/C,[2],102 % of control
same,T/C,[3],100 % of control
same,T/C,[4],101 % of control
CCCCN(CCCC)CC(O)c1cccc2cc(Cl)ccc12 (stereo not given),T/C,[5],104 % of control
same,T/C,[6],109 % of control
O=C1/C(=C/c2cccc(O)c2)COc2ccccc21,T/C,"dose: 60.0 mg/kg/injection, schedule: Q01DX005 (ip), vehicle: saline with Tween-80",95 % of control
same,T/C,"dose: 120.0 mg/kg/injection, schedule: Q01DX005 (ip), vehicle: saline with Tween-80",94 % of control
same,T/C,"dose: 240.0 mg/kg/injection, schedule: Q01DX005 (ip), vehicle: saline with Tween-80",87 % of control
COc1cc2c[n+](C)c3c4cc5c(cc4ccc3c2cc1OC)OCO5 (tested in a mixture with another compound),T/C,"dose: 3.13 mg/kg/injection, schedule: Q01DX009 (ip), vehicle: other",103 % of control
same,T/C,"dose: 6.25 mg/kg/injection, schedule: Q01DX009 (ip), vehicle: Klucel (hydroxypropylcellulose) (HPC)",159 % of control
same,T/C,"dose: 6.25 mg/kg/injection, schedule: Q01DX009 (ip), vehicle: other",151 % of control
same,T/C,"dose: 7.4 mg/kg/injection, schedule: Q01DX009 (ip), vehicle: other",116 % of control
same,T/C,"dose: 12.5 mg/kg/injection, schedule: Q01DX009 (ip), vehicle: other",156 % of control
same,T/C,[1],173 % of control
same,T/C,"dose: 50.0 mg/kg/injection, schedule: Q01DX009 (ip), vehicle: water",99 % of control
CCCCCCCCCCCC(=O)NCC(=O)NC1C(C)OC(Nc2ncnc3nc[nH]c23)C(O)C1O (stereo not given),T/C,"dose: 0.25 mg/kg/injection, schedule: Q01DX009 (ip), vehicle: other",113 % of control
same,T/C,"dose: 0.5 mg/kg/injection, schedule: Q01DX009 (ip), vehicle: other",109 % of control
BrC[Si](CBr)(c1ccccc1)c1ccccc1,T/C,"dose: 12.5 mg/kg/injection, schedule: Q01DX009 (ip), vehicle: saline",106 % of control
same,T/C,"dose: 25.0 mg/kg/injection, schedule: Q01DX009 (ip), vehicle: saline",106 % of control
same,T/C,"dose: 50.0 mg/kg/injection, schedule: Q01DX009 (ip), vehicle: saline",99 % of control and 92 % of control
Nc1ccc2[nH]c(=O)cc(C(=O)O)c2c1,T/C,[5],92 % of control
same,T/C,[6],93 % of control
same,T/C,"dose: 200.0 mg/kg/injection, schedule: Q01DX005 (ip), vehicle: saline with Tween-80",92 % of control
CC1[C@@]2(O[C@@H]3C=C4C5CCC6Cc7nc8c(nc7C[C@@]6(C)C5C[C@H](O)[C@@]4(C)[C@]13O)CC1CCc3c(cc4c5c3C(O)C[C@H]5[C@@H](C)C3(O4)OC(C)(C)CC3O)[C@]1(C)C8)O[C@@](C)(CO)C[C@@H]2O (stereo not given in full),T/C,"dose: 12.5 micrograms/kg/injection, schedule: Q01DX009 (ip), vehicle: saline + alcohol",109 % of control
same,T/C,"dose: 25.0 micrograms/kg/injection, schedule: Q01DX009 (ip), vehicle: saline + alcohol",107 % of control
same,T/C,"dose: 100.0 micrograms/kg/injection, schedule: Q01DX009 (ip), vehicle: saline + alcohol",98 % of control
